Results as given in ChEMBL document CHEMBL1144951, “Synthesis of N-alkylated derivatives of imidazole as antibacterial agents” (2003).
In brackets after ≈: the same amount, converted by molar mass.

Key:
Format in all cases: functional
Staphylococcus aureus [1] = test: Minimum bacterial concentration (MBC) against Staphylococcus aureus
Escherichia coli [2] = test: Minimum bacterial concentration (MBC) against Escherichia coli
Pseudomonas aeruginosa [3] = test: Minimum inhibitory concentration (MIC) against Pseudomonas aeruginosa
Pseudomonas aeruginosa [4] = test: Minimum bacterial concentration (MBC) against Pseudomonas aeruginosa
Escherichia coli [5] = test: Minimum inhibitory concentration (MIC) against Escherichia coli
Staphylococcus aureus [6] = test: Minimum inhibitory concentration (MIC) against Staphylococcus aureus

Row | Compound | MBC (Staphylococcus aureus [1]) | MBC (Escherichia coli [2]) | MIC (Pseudomonas aeruginosa [3]) | MBC (Pseudomonas aeruginosa [4]) | MIC (Escherichia coli [5]) | MIC (Staphylococcus aureus [6])
1 | CCCCn1ccnc1 | 174 µg/mL (≈ 1400 µM) | 198 µg/mL (≈ 1590 µM) | 248 µg/mL (≈ 2000 µM) | 496 µg/mL (≈ 3990 µM) | 99 µg/mL (≈ 797 µM) | 87 µg/mL (≈ 701 µM)
2 | CCCCCCCCCCCCn1ccnc1C | 18800 µg/mL (≈ 74900 µM) | 18800 µg/mL (≈ 74900 µM) | – | – | 17500 µg/mL (≈ 69900 µM) | 17500 µg/mL (≈ 69900 µM)
3 | CCCCCCCCn1ccnc1 | 45 µg/mL (≈ 250 µM) | 90 µg/mL (≈ 499 µM) | 54 µg/mL (≈ 300 µM) | 108 µg/mL (≈ 599 µM) | 45 µg/mL (≈ 250 µM) | 27 µg/mL (≈ 150 µM)
4 | CCn1ccnc1 | 960 µg/mL (≈ 9990 µM) | 960 µg/mL (≈ 9990 µM) | 960 µg/mL (≈ 9990 µM) | 1920 µg/mL (≈ 20000 µM) | 480 µg/mL (≈ 4990 µM) | 480 µg/mL (≈ 4990 µM)
5 | CCCCCCCCCn1ccnc1 | 19 µg/mL (≈ 97.8 µM) | 39 µg/mL (≈ 201 µM) | 39 µg/mL (≈ 201 µM) | 78 µg/mL (≈ 401 µM) | 19 µg/mL (≈ 97.8 µM) | 10 µg/mL (≈ 51.5 µM)
6 | CCCCCCn1ccnc1 | 91 µg/mL (≈ 598 µM) | 182 µg/mL (≈ 1200 µM) | 122 µg/mL (≈ 801 µM) | 243 µg/mL (≈ 1600 µM) | 91 µg/mL (≈ 598 µM) | 46 µg/mL (≈ 302 µM)
7 | GENTAMICIN | 4 µg/mL | 128 µg/mL | 8 µg/mL | 12 µg/mL | 64 µg/mL | 2 µg/mL
8 | CCCCCCCCCCn1ccnc1 | 416 µg/mL (≈ 2000 µM) | 416 µg/mL (≈ 2000 µM) | 416 µg/mL (≈ 2000 µM) | 832 µg/mL (≈ 3990 µM) | 208 µg/mL (≈ 998 µM) | 208 µg/mL (≈ 998 µM)
9 | CCCCCCCCCCCCCn1ccnc1 | 18800 µg/mL (≈ 74900 µM) | 20000 µg/mL (≈ 79900 µM) | 20000 µg/mL (≈ 79900 µM) | 21200 µg/mL (≈ 84900 µM) | 18800 µg/mL (≈ 74900 µM) | 17500 µg/mL (≈ 69900 µM)
10 | CCCCCCCCCCCCCCn1ccnc1 | 21100 µg/mL (≈ 79900 µM) | 22400 µg/mL (≈ 84900 µM) | 23800 µg/mL (≈ 89800 µM) | 25100 µg/mL (≈ 94800 µM) | 21100 µg/mL (≈ 79900 µM) | 19800 µg/mL (≈ 74900 µM)
11 | CCCCCn1ccnc1 | 138 µg/mL (≈ 998 µM) | 193 µg/mL (≈ 1400 µM) | 138 µg/mL (≈ 998 µM) | 276 µg/mL (≈ 2000 µM) | 97 µg/mL (≈ 702 µM) | 69 µg/mL (≈ 499 µM)
12 | CCCn1ccnc1 | 198 µg/mL (≈ 1800 µM) | 220 µg/mL (≈ 2000 µM) | 550 µg/mL (≈ 4990 µM) | 1100 µg/mL (≈ 9990 µM) | 110 µg/mL (≈ 999 µM) | 44 µg/mL (≈ 399 µM)
13 | CCCCn1cc([N+](=O)[O-])nc1C | 33 µg/mL (≈ 180 µM) | 37 µg/mL (≈ 202 µM) | – | – | 18 µg/mL (≈ 98.2 µM) | 17 µg/mL (≈ 92.8 µM)
14 | CCCCCCCn1ccnc1 | 66 µg/mL (≈ 397 µM) | 100 µg/mL (≈ 601 µM) | 83 µg/mL (≈ 499 µM) | 166 µg/mL (≈ 998 µM) | 50 µg/mL (≈ 301 µM) | 33 µg/mL (≈ 198 µM)
15 | CCCCCCCCn1cc([N+](=O)[O-])nc1C | 48 µg/mL (≈ 201 µM) | 60 µg/mL (≈ 251 µM) | – | – | 31 µg/mL (≈ 130 µM) | 24 µg/mL (≈ 100 µM)
16 | CCCCCCCCCCCn1ccnc1 | 2220 µg/mL (≈ 9980 µM) | 2220 µg/mL (≈ 9980 µM) | 2220 µg/mL (≈ 9980 µM) | 4440 µg/mL (≈ 20000 µM) | 1110 µg/mL (≈ 4990 µM) | 1110 µg/mL (≈ 4990 µM)
17 | CCCCCCn1ccnc1C | 50 µg/mL (≈ 301 µM) | 50 µg/mL (≈ 301 µM) | – | – | 25 µg/mL (≈ 150 µM) | 25 µg/mL (≈ 150 µM)
18 | CCCCCCCCCCCCn1ccnc1 | 15300 µg/mL (≈ 64900 µM) | 15300 µg/mL (≈ 64900 µM) | 16500 µg/mL (≈ 69900 µM) | 17700 µg/mL (≈ 74900 µM) | 14200 µg/mL (≈ 59900 µM) | 14200 µg/mL (≈ 59900 µM)
